From paper PMC9127807, “Echinocandins Localized to the Target-Harboring Cell Surface Are Not Degraded but Those Entering the Vacuole Are” (ACS Chemical Biology, 2022)
In brackets after ≈: the same amount, converted by molar mass. Several values for one entry are separate records, joined by “and”; a condition that tells them apart may be missing. Equal values may be shown once. Read-outs that look alike come from different tables or passages of the source. Starred links: 1 amine or outer side, 2 acyl side, 3 side chain; linkers in the order of their positions; H or OH if unused. Positions of bridges follow the written chain, without caps; N, C: chain ends. Non-standard residues stand in square brackets, D forms with d. Residues, ends and D or L forms follow the SMILES beside them. *: point of attachment. Orn(4R-OH,5R-OCH2CH2NMe3+) = C[N+](C)(C)CCO[C@@H](N[*:3])[C@H](O)C[C@H](N[*:1])C(=O)[*:2]; pTerphenylCO(4''-OnC5H11) = CCCCCOc1ccc(-c2ccc(-c3ccc(C(=O)*)cc3)cc2)cc1; Orn(4R-OH,5R-OH) = O=C([C@H](C[C@@H](O)[C@@H](O)N[*:3])N[*:1])[*:2]; hTyr(3S-OH,4S-OH) = N[C@H](C(=O)O)[C@H](O)[C@@H](O)c1ccc(O)cc1; Pro(3S-OH,4S-Me) = C[C@H]1CN[C@H](C(=O)O)[C@H]1O; Hyp = O=C(O)[C@@H]1C[C@@H](O)CN1

Tests used:
[1] = system: C. albicans ATCC 10231; details: strain D, echinocandin-susceptible; YPAD broth, 24 h, 30 °C, OD600 reduced by ≥75%
Method: (§1) Candida strains were streaked from glycerol stock onto YPAD agar plates and grown for 24 h at 30 °C. Colonies were suspended in 1 mL of PBS and diluted to an optical density of 2 × 10^–4 at 600 nm (OD600) in flat-bottom 96-well microplates (Corning) with YPAD broth containing dilutions of each tested compound at concentrations ranging from 64 to 0.008 μg/mL in twofold dilutions. Control wells with yeast cells but no drug and blank wells that contained only YPAD were prepared. MIC values (Table S2) were determined after 24 h at 30 °C by measuring the OD600 using a plate reader (Infinite M200 PRO, Tecan). MIC values were defined as the point at which the OD600 was reduced by ≥75% compared to the no-drug wells. Each concentration was tested in triplicate, and the results were confirmed by two independent sets of experiments.

[2] = system: C. albicans ATCC 24433; details: strain C, echinocandin-susceptible; YPAD broth, 24 h, 30 °C, OD600 reduced by ≥75%
Method: as §1

[3] = system: C. albicans ATCC 90028; details: strain E, echinocandin-susceptible; YPAD broth, 24 h, 30 °C, OD600 reduced by ≥75%
Method: as §1

[4] = system: C. albicans DPL1016 (DP-A15-10); details: strain F, echinocandin resistant FKS mutation; YPAD broth, 24 h, 30 °C, OD600 reduced by ≥75%
Method: as §1

[5] = system: C. albicans SC5314; details: strain A, echinocandin-susceptible; YPAD broth, 24 h, 30 °C, OD600 reduced by ≥75%; triplicate, two independent experiments
Method: as §1

[6] = system: C. albicans T-2068 (DP-C42); details: strain G, echinocandin resistant FKS mutation; YPAD broth, 24 h, 30 °C, OD600 reduced by ≥75%
Method: as §1

[7] = system: C. glabrata ATCC 2001; details: strain I, echinocandin-susceptible; YPAD broth, 24 h, 30 °C, OD600 reduced by ≥75%
Method: as §1

[8] = system: C. glabrata ATCC 66032; details: strain J, echinocandin-susceptible; YPAD broth, 24 h, 30 °C, OD600 reduced by ≥75%
Method: as §1

[9] = system: C. glabrata ATCC 90030; details: strain K, echinocandin-susceptible; YPAD broth, 24 h, 30 °C, OD600 reduced by ≥75%
Method: as §1

[10] = system: C. glabrata EF1620; details: strain H, echinocandin-susceptible; YPAD broth, 24 h, 30 °C, OD600 reduced by ≥75%
Method: as §1

[11] = system: C. glabrata T-192 (1775); details: strain L, echinocandin-susceptible; YPAD broth, 24 h, 30 °C, OD600 reduced by ≥75%
Method: as §1

[12] = system: C. glabrata TGL00275; details: strain M, echinocandin resistant FKS mutation; YPAD broth, 24 h, 30 °C, OD600 reduced by ≥75%
Method: as §1

[13] = system: C. glabrata TGL00277; details: strain N, echinocandin resistant FKS mutation; YPAD broth, 24 h, 30 °C, OD600 reduced by ≥75%
Method: as §1

[14] = system: C. albicans SN152; assay: MIC broth double-dilution assay; format: cell-based, Candida albicans; details: strain B, echinocandin-susceptible; YPAD broth, 24 h, 30 °C, OD600 reduced by ≥75%
Method: as §1, with “Colonies” for “Candida strains were streaked from glycerol stock onto YPAD agar plates and grown for 24 h at 30 °C. Colonies”

[15] = incubation in human plasma for 44 h at 37 °C; cited from earlier work
Text: Intending to develop echinocandins with improved chemical stability under physiological conditions, Cidara Therapeutics developed rezafungin (RZF), a novel ANF derivative with distinctive pharmacokinetic and pharmacodynamic profiles, which entered phase III trials in October 2018 (Figure 1).[18]−[21] […] Instead of the daily intravenous administration regime used for the other three echinocandins, RZF can be administered intravenous ...

[16] = system: C. albicans SC5314 cells; details: for percentage degraded: 24 h, 10 μM, 30 °C, RP-HPLC of lysates
Method: C. albicans SC5314 cells were streaked from glycerol stocks onto YPAD agar plates and grown for 24 h at 30 °C. Colonies were grown in tubes in 3 mL of YPAD broth for 24 h at 30 °C with shaking. Cultures were diluted 1:50 and incubated in 5 mL of YPAD broth for 3 h at 30 °C with shaking until log-phase growth was observed. Cultures were then centrifuged (4000 rpm, 3 min), washed with PBS buffer, and resuspended in 1 mL of PBS buffer or YPAD. Cells were incubated with TMR-based probes (1 or 3) at a final concentration of 10 μM at 30 °C with shaking in the dark for 24 h. After washing three times with PBS, cells were resuspended in 75 μL of TNE buffer (10 mM Tris, 100 mM NaCl, and 1 mM ethylenediaminetetraacetic acid, pH 8.0) in a 1.5 mL Eppendorf tube, and 0.5 mm diameter beads were added to the yeast solution. The mixture was agitated on a vortex at maximum speed for 5 min. Next, 200 μL of 2% Triton X-100 in TNE buffer (v/v) was added to the agitated solution, and then the mixture was sonicated for 15 min. To clarify the yeast lysate, the mixture was centrifuged twice (16 000g, 20 min), and the supernatant was removed and filtered using a 0.22 μm syringe filter. The samples were analyzed using analytical reverse-phase HPLC at a 550 nm wavelength. HPLC conditions: mobile phase: acetonitrile in H2O (containing 0.1% trifluoroacetic acid (v/v)), gradient from 10 to 90%; flow rate: 1 mL/min; absorbance wavelength: 550 nm. Each sample was tested in two independent sets of experiments. The percentages of intact echinocandin were determined using the area calculation function available in the Hitachi Primaide Software and are presented as means (two replicates) ± standard deviation (SD).

[17] = system: C. albicans SC5314 cell lysate; details: incubated with lysate of C. albicans SC5314 in buffer for 24 h; RP-HPLC
Method: C. albicans SC5314 cells were streaked from glycerol stocks onto YPAD agar plates and grown for 24 h at 30 °C. Colonies were grown in tubes in 3 mL of YPAD broth for 24 h at 30 °C with shaking. Cultures were diluted 1:50 and incubated in 5 mL of YPAD broth for 3 h at 30 °C with shaking until log-phase growth was observed. Cultures were then centrifuged (4000 rpm, 3 min), washed with PBS buffer, and resuspended in 1 mL of PBS buffer or YPAD. Cells were incubated with TMR-based probes (1 or 3) at a final concentration of 10 μM at 30 °C with shaking in the dark for 24 h. After washing three times with PBS, cells were resuspended in 75 μL of TNE buffer (10 mM Tris, 100 mM NaCl, and 1 mM ethylenediaminetetraacetic acid, pH 8.0) in a 1.5 mL Eppendorf tube, and 0.5 mm diameter beads were added to the yeast solution. The mixture was agitated on a vortex at maximum speed for 5 min. […] The samples were analyzed using analytical reverse-phase HPLC at a 550 nm wavelength. HPLC conditions: mobile phase: acetonitrile in H2O (containing 0.1% trifluoroacetic acid (v/v)), gradient from 10 to 90%; flow rate: 1 mL/min; absorbance wavelength: 550 nm. […] The percentages of intact echinocandin were determined using the area calculation function available in the Hitachi Primaide Software and are presented as means (two replicates) ± standard deviation (SD).

With `CCCCCOc1ccc(-c2ccc(-c3ccc(C(=O)N[C@H]4C[C@@H](O)[C@@H](OCCc5cn(CCCNc6ccc([N+](=O)[O-])c7nonc67)nn5)NC(=O)[C@@H]5[C@@H](O)[C@@H](C)CN5C(=O)[C@H]([C@@H](C)O)NC(=O)[C@H]([C@H](O)[C@@H](O)c5ccc(O)cc5)NC(=O)[C@@H]5C[C@@H](O)CN5C(=O)[C@H]([C@@H](C)O)NC4=O)cc3)cc2)cc1` [Probe 4] as the compound, how does the MIC [1] read?
Its MIC is 0.25 µg/mL (≈ 0.172 µM).

What about the MIC [2] of the same compound?
Its MIC is 0.25 µg/mL (≈ 0.172 µM).

What about the MIC [3] of the same compound?
The MIC was 0.5 µg/mL (≈ 0.344 µM).

And the MIC [4]?
The MIC was > 64 µg/mL.

And the MIC [5]?
Its MIC is 0.25 µg/mL (≈ 0.172 µM).

What about the MIC [6] of the same compound?
The MIC was > 64 µg/mL.

And the MIC [7]?
Its MIC is 0.5 µg/mL (≈ 0.344 µM).

And the MIC [8]?
The MIC was 0.5 µg/mL (≈ 0.344 µM).

What about the MIC [9] of the same compound?
Its MIC is 0.5 µg/mL (≈ 0.344 µM).

And the MIC [10]?
Its MIC is 0.5 µg/mL (≈ 0.344 µM).

And the MIC [11]?
Its MIC is 0.25 µg/mL (≈ 0.172 µM).

What about the MIC [12] of the same compound?
The MIC was > 64 µg/mL.

And the MIC [13]?
The MIC was > 64 µg/mL.

And the MIC [14]?
Its MIC is 0.25 µg/mL (≈ 0.172 µM).

Which results are given for `CCCCCOc1ccc(-c2ccc(-c3ccc(C(=O)N[C@H]4C[C@@H](O)[C@@H](OCC[N+](C)(C)C)NC(=O)[C@@H]5[C@@H](O)[C@@H](C)CN5C(=O)[C@H]([C@@H](C)O)NC(=O)[C@H]([C@H](O)[C@@H](O)c5ccc(O)cc5)NC(=O)[C@@H]5C[C@@H](O)CN5C(=O)[C@H]([C@@H](C)O)NC4=O)cc3)cc2)cc1` [RZF, rezafungin, reference compound] ({pTerphenylCO(4''-OnC5H11)}-[Orn(4R-OH,5R-OCH2CH2NMe3+)]T[Hyp][hTyr(3S-OH,4S-OH)]T[Pro(3S-OH,4S-Me)]; lactam 1-C)?
MIC [1]: 0.063 µg/mL; MIC [2]: 0.031 µg/mL; MIC [3]: 0.031 µg/mL; MIC [4]: 8 µg/mL; MIC [5]: 0.016 µg/mL; MIC [6]: 4 µg/mL; MIC [7]: 0.063 µg/mL; MIC [8]: 0.031 µg/mL; MIC [9]: 0.031 µg/mL; MIC [10]: 0.016 µg/mL; MIC [11]: 0.016 µg/mL; MIC [12]: 8 µg/mL; MIC [13]: > 64 µg/mL; MIC [14]: 0.031 µg/mL; percent of intact drug [15]: 91%

With `CC[C@H](C)C[C@H](C)CCCCCCCCC(=O)N[C@H]1C[C@@H](O)[C@@H](NCCN)NC(=O)[C@@H]2[C@@H](O)CCN2C(=O)[C@H]([C@H](O)CCN)NC(=O)[C@H]([C@H](O)[C@@H](O)c2ccc(OCc3cn(CCCNC(=O)c4ccc(-c5c6ccc(=[N+](C)C)cc-6oc6cc(N(C)C)ccc56)c(C(=O)[O-])c4)nn3)cc2)NC(=O)[C@@H]2C[C@@H](O)CN2C(=O)[C@H]([C@@H](C)O)NC1=O` [Probe 1] as the compound, how does the percentage degraded ([16]; cells in nutrient-free PBS buffer) read?
The percentage degraded was “approximately 70%”.

What about the percentage degraded ([16]; cells in nutrient-rich YPAD medium) of the same compound?
Its percentage degraded is “approximately 40%”.

What about the percentage intact ([16]; control: 5 min incubation with the cells in PBS, RP-HPLC) of the same compound?
Its percentage intact is ~80%.

And the percentage intact [17]?
The percentage intact was 78% and ~80%.

Which results are given for `CCCCCOc1ccc(-c2ccc(-c3ccc(C(=O)N[C@H]4C[C@@H](O)[C@@H](O)NC(=O)[C@@H]5[C@@H](O)[C@@H](C)CN5C(=O)[C@H]([C@@H](C)O)NC(=O)[C@H]([C@H](O)[C@@H](O)c5ccc(O)cc5)NC(=O)[C@@H]5C[C@@H](O)CN5C(=O)[C@H]([C@@H](C)O)NC4=O)cc3)cc2)cc1` [ANF, anidulafungin, reference compound] ({pTerphenylCO(4''-OnC5H11)}-[Orn(4R-OH,5R-OH)]T[Hyp][hTyr(3S-OH,4S-OH)]T[Pro(3S-OH,4S-Me)]; lactam 1-C)?
MIC [1]: 0.016 µg/mL (≈ 0.014 µM); MIC [2]: 0.008 µg/mL (≈ 0.00702 µM); MIC [3]: 0.016 µg/mL (≈ 0.014 µM); MIC [4]: 4 µg/mL (≈ 3.51 µM); MIC [5]: 0.008 µg/mL (≈ 0.00702 µM); MIC [6]: 4 µg/mL (≈ 3.51 µM); MIC [7]: 0.008 µg/mL (≈ 0.00702 µM); MIC [8]: 0.016 µg/mL (≈ 0.014 µM); MIC [9]: 0.016 µg/mL (≈ 0.014 µM); MIC [10]: 0.008 µg/mL (≈ 0.00702 µM); MIC [11]: 0.008 µg/mL (≈ 0.00702 µM); MIC [12]: 4 µg/mL (≈ 3.51 µM); MIC [13]: > 64 µg/mL; MIC [14]: 0.008 µg/mL (≈ 0.00702 µM); percent of intact drug [15]: 7%
